Results: patent US20230301968A1 (ZEPHAPHARM LTD, priority 2020, published 2023)

Key:
Assay type in all cases: in vitro ADME
[1] = biological target: T1, CYP1A2 (Homo sapiens, UniProt P05177); test: Cytochrome P450 reaction phenotyping, recombinant CYP1A2
T1 construct: purchased
T1 sequence (P05177 1-516): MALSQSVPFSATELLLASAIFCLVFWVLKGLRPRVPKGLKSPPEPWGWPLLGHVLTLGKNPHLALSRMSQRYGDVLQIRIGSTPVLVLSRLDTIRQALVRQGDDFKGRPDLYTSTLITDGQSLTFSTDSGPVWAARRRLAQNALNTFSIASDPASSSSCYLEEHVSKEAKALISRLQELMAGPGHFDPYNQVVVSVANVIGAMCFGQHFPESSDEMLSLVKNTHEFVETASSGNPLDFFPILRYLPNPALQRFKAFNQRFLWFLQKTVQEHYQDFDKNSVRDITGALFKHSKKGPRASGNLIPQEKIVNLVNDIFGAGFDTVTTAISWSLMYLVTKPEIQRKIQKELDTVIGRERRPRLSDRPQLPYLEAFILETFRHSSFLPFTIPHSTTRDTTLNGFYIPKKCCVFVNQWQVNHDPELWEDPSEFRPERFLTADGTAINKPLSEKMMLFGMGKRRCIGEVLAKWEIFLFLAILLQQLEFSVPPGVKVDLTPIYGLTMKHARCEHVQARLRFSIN
Description: (§1) The amount of test compound remaining at each time point was analysed by LC-MS/MS. Incubations in control recombinant enzymes were also performed to assess non-enzymatic mediated stability.
(§2) Incubations were also performed using control Bactosomes™ (no cytochrome P450 enzymes present) to reveal any non-enzymatic degradation. Control compounds known to be metabolised specifically by each P450 isoform were included. All incubations were performed singularly for each test compound. […] The reactions were stopped by transferring an aliquot of incubate to quench solvent at the appropriate time points, in a 1:3 ratio. The termination plates were centrifuged at 3,000 rpm for 20 min at 4° C. to precipitate the protein. Following protein precipitation, the sample supernatants were analysed using LC-MS/MS, along with internal standard (1:1 supernatant to internal standard).
(§3) Following correction for any loss in the incubations with the control Bactosomes™, from a plot of In peak area ratio (compound peak area/internal standard peak area) against time, the gradient of the line was determined. Subsequently, half-life (t½) was calculated using the equations below: […]

[2] = biological target: T2, CYP2C8 (Homo sapiens, UniProt P10632); test: Cytochrome P450 reaction phenotyping, recombinant CYP2C8; details: for t½: 1 µM substrate, recombinant CYP2C8, NADPH
T2 construct: purchased
T2 sequence (P10632 1-490): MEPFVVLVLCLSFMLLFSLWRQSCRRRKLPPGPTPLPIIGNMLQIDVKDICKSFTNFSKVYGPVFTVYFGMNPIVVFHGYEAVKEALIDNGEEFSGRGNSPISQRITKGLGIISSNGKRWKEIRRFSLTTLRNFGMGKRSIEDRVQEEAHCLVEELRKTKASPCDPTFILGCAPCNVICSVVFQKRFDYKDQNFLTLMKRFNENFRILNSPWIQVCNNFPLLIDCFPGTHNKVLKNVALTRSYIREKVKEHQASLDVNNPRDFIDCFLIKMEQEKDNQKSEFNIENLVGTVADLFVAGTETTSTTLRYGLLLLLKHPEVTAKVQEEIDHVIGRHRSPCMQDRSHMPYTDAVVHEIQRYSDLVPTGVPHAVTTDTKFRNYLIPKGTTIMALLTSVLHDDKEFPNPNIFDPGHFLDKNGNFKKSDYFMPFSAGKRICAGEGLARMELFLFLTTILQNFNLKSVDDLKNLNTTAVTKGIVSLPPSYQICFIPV
Description: as §1, §2, §3

[3] = biological target: T3, CYP2D6 (Homo sapiens, UniProt P10635); test: Cytochrome P450 reaction phenotyping, recombinant CYP2D6
T3 construct: purchased
Description: as §1, §2, §3

[4] = biological target: T4, CYP3A4 (Homo sapiens, UniProt P08684); test: Cytochrome P450 reaction phenotyping, recombinant CYP3A4
T4 construct: purchased
Description: as §1, §2, §3

T3 sequence (P10635 whole entry): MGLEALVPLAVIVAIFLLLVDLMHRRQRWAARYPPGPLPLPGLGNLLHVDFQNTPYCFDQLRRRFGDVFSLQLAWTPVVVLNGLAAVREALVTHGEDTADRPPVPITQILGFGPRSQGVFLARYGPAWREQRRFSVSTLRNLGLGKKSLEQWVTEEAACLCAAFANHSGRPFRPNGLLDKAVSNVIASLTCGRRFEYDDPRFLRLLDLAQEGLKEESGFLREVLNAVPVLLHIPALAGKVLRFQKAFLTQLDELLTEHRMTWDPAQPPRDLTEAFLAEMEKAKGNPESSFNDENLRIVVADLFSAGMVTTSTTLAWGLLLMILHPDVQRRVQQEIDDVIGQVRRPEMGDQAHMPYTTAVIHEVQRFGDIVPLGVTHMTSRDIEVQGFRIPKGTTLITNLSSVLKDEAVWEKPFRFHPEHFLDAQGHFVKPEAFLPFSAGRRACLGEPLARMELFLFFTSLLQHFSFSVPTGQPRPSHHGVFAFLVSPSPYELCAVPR
T4 sequence (P08684 whole entry): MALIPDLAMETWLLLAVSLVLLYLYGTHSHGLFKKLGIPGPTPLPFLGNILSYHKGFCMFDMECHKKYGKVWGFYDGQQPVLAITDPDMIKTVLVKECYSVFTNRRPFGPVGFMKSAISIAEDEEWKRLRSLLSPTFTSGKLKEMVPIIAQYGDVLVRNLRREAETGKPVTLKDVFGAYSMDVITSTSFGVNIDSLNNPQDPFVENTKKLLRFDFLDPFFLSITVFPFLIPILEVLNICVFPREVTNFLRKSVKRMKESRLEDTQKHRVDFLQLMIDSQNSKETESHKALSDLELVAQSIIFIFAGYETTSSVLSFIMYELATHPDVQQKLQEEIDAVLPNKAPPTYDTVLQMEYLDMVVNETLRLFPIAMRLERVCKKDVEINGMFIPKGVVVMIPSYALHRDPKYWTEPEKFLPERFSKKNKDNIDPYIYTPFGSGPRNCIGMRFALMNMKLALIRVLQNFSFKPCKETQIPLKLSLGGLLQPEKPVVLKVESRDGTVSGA

Q: How did the “Compound Remaining (% of 0 min)” value ([1]; CYP1A2, 0 min) turn out when `COC(=O)Nc1nc2cc(C(=O)c3ccc(F)cc3)ccc2[nH]1` [Flubendazole, methyl N-[6-(4-fluorobenzoyl)-1H-benzimidazol-2-yl]carbamate] was run?
A: 100%

Q: What about the “Compound Remaining (% of 0 min)” value ([1]; CYP1A2, 5 min) of the same compound?
A: 38.6%

Q: And the “Compound Remaining (% of 0 min)” value ([1]; CYP1A2, 15 min)?
A: 1.30%

Q: What about the “Compound Remaining (% of 0 min)” value ([1]; CYP1A2, 30 min) of the same compound?
A: 0.0440%

Q: And the “Compound Remaining (% of 0 min)” value ([1]; CYP1A2, 45 min)?
A: 0.002%

Q: And the half-life at 1 µM ([1]; human, pH 7.4, 1 µM substrate, recombinant CYP1A2, NADPH, 30 and 45 minute time points excluded, read-out: t½)?
A: 2.34 min

Q: And the t½ [2]?
A: 11.5 h

Q: What about the t½ ([2]; listed as flubendazole) of the same compound?
A: ≥ 2.45 h

Q: What about the “Compound Remaining (% of 0 min)” value ([2]; CYP2C8, 0 min) of the same compound?
A: 100%

Q: And the “Compound Remaining (% of 0 min)” value ([2]; CYP2C8, 5 min)?
A: 100%

Q: And the “Compound Remaining (% of 0 min)” value ([2]; CYP2C8, 30 min)?
A: 99.4%

Q: And the “Compound Remaining (% of 0 min)” value ([2]; CYP2C8, 45 min)?
A: 95.3%

Q: What about the t½ ([3]; 1 µM substrate, recombinant CYP2D6, NADPH) of the same compound?
A: 2.45 h

Q: What about the “Compound Remaining (% of 0 min)” value ([3]; CYP2D6, 0 min) of the same compound?
A: 100%

Q: And the “Compound Remaining (% of 0 min)” value ([3]; CYP2D6, 5 min)?
A: 93.1%

Q: And the “Compound Remaining (% of 0 min)” value ([3]; CYP2D6, 15 min)?
A: 90.0%

Q: And the “Compound Remaining (% of 0 min)” value ([3]; CYP2D6, 30 min)?
A: 85.6%

Q: What about the “Compound Remaining (% of 0 min)” value ([3]; CYP2D6, 45 min) of the same compound?
A: 78.9%

Q: And the half-life at 1 µM ([3]; human, pH 7.4, 1 µM substrate, recombinant CYP2D6, NADPH, read-out: t½)?
A: ≥ 2.45 h

Q: And the “Compound Remaining (% of 0 min)” value ([4]; CYP3A4, 0 min)?
A: 100%

Q: What about the “Compound Remaining (% of 0 min)” value ([4]; CYP3A4, 5 min) of the same compound?
A: 94.6%

Q: What about the “Compound Remaining (% of 0 min)” value ([4]; CYP3A4, 15 min) of the same compound?
A: 98.2%

Q: And the “Compound Remaining (% of 0 min)” value ([4]; CYP3A4, 30 min)?
A: 100%

Q: What about the “Compound Remaining (% of 0 min)” value ([4]; CYP3A4, 45 min) of the same compound?
A: 97.5%

Q: And the half-life at 1 µM ([4]; human, pH 7.4, 1 µM substrate, recombinant CYP3A4, NADPH, minus value = not metabolised, read-out: t½)?
A: ≥ 2.45 h
